Laboratory results taken from US20250115609A1, “AROMATIC HETEROCYCLIC COMPOUNDS, PREPARATION METHOD THEREFOR AND USES THEREOF” (Innovstone Therapeutics Limited, priority 2021, published 2025).
pEC50, pIC50: −log10 of the molar value. Like-named read-outs stand apart in the source and are kept apart here.

Key:
hENPP1 enzyme = hENPP1 enzyme (Homo sapiens (Human), UniProt P22413); experiment: ENPP1 enzymatic inhibition in biochemical assay (TMP-pNP hydrolysis, OD405); conditions: ENPP1 enzymatic inhibition activity, TMP-pNP substrate, pH 9.5
Chain of hENPP1 enzyme (P22413 whole entry): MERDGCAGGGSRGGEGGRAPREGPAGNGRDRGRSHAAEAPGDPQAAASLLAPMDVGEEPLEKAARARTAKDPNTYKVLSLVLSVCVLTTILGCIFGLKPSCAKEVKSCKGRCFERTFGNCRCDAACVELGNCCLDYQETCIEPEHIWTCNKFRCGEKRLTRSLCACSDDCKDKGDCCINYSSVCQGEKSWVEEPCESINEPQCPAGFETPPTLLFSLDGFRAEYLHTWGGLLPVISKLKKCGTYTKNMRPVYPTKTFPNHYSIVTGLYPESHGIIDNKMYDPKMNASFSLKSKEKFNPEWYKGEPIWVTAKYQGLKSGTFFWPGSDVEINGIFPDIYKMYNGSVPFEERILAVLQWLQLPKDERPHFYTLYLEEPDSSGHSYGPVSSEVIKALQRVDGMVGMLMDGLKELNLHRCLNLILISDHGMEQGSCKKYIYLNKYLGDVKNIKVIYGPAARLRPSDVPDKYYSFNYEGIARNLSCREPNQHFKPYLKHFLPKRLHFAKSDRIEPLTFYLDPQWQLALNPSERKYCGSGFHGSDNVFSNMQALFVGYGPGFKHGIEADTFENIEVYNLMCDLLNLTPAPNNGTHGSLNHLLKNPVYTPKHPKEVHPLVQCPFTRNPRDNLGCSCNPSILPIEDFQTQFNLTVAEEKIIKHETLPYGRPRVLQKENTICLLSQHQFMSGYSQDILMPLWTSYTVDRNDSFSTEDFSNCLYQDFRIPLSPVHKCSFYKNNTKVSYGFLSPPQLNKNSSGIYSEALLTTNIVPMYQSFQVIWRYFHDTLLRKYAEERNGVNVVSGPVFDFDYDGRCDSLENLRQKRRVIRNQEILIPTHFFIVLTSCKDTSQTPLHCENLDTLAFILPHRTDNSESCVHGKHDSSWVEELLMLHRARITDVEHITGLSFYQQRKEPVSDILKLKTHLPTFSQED
Excerpt: ENPP1 was a transmembrane glycoprotein capable of hydrolyzing nucleotides and derivatives with a nucleotide-5′-monophosphate structure. ENPP1 was capable of hydrolyzing artificial thymidine 5′-monophosphate p-nitrophenyl ester (TMP-pNP) into nucleotide 5′-monophosphate and p-nitrophenol which was a chromogenic product. The formation amount of p-nitrophenol product could be directly measured by its absorbance at 405 nm, which was directly proportional to the enzyme activity.
The compound was dissolved in DMSO, with stock concentration of 1 mM, and diluted in a 4-fold serial gradient to make 10 concentration points. Echo was used to transfer 300 nL of gradient concentrations of compound to a 384-well assay plate (final concentration: starting at 10 μM, 4-fold serial gradient dilution, 10 concentration points). First, 15 μL of 0.2 ng/uL hENPP1 enzyme (2× final concentration) prepared in assay buffer (250 mM NaCl, 50 mM Tris, pH=9.5) was added to each well. Then, 15 μL of 400 μM TMP-pNP (2× final concentration) diluted in assay buffer was added. After incubating at 37° C. for 0.5 hrs, the OD405 nm value was read by the microplate reader. The percentage inhibition was calculated using the formula: % Inhibition Rate=(ODhigh signal control−ODsample well)/(ODhigh signal control−ODlow signal control)*100. The IC50 value was calculated using four-parameter fit. The high signal control was the DMSO group without inhibitors, and the low signal control was the blank control group.

[1] = molecular target: ENPP1 in cultured MDA-MB-231 cells (Homo sapiens (Human), UniProt P22413); experiment: ENPP1 enzymatic inhibition in cellular assay (MDA-MB-231 cells, TMP-pNP); assay type: cell-based; conditions: ENPP1 enzymatic inhibition activity at the cellular level
Chain of ENPP1 in cultured MDA-MB-231 cells (P22413 whole entry): as above
Protocol: ENPP1 was mainly expressed on the surface of cell membranes and could hydrolyze 2′3′-cGAMP into 5′-GMP and 5′-AMP. Similarly, ENPP1 could also hydrolyze the synthetic phosphate TMP-pNP, generating nucleotide-5′-monophosphate and the chromogenic product p-nitrophenol. Therefore, TMP-pNP was used as a substrate to reflect the enzyme activity of ENPP1 in cultured MDA-MB-231 cells. The amount of p-nitrophenol formed in the culture medium was determined by absorbance at 405 nim, which was directly proportional to the activity of ENPP1.
MDA-MB-231 cells was seeded with a density of 6000 per well in 384-well plate and cultured overnight (about 18 hrs) at 37° C. The compound was diluted into a 50× serial gradient dilution using an assay buffer (250 mM NaCl, 50 mM Tris, pH=9.5), starting at 500 μM, and diluted in a 4-fold serial gradient to make 10 concentration points. The cell culture medium was removed, and 10 μL of gradient concentrations of compounds were added to each well of the 384-well assay plate (final concentration: starting at 10 μM, 4-fold serial gradient dilution, with 10 concentration points). Then, 10 μL of 1 mM TMP-pNP (2× final concentration) dissolved in the assay buffer was added to the well. After incubating at 37° C. for 3 hrs, the OD405 nm value was read by the microplate reader. The percentage inhibition was calculated using the formula: % Inhibition Rate=(ODhigh signal control−ODsample well)/(ODhigh signal control−ODlow signal control)*100. The IC50 value was calculated using four-parameter fit. The high signal control was the DMSO group without inhibitors, and the low signal control was the blank control group.

[2] = Pharmacokinetics in mice, compound concentration by LC-MS/MS; assay type: in vivo, CD-1 male mice; conditions: for AUC(0-t): read-out: AUC0-24 h; for Vd: read-out: VSS
[3] = male, CD-1, mouse, plasma, 10 mg/kg, PO, 10 mpk vs IV, 2 mpk
[4] = male, CD-1, mouse, plasma, 2 mg/kg, IV, 2 mpk
[5] = male, CD-1, mouse, plasma, 10 mg/kg, PO, 10 mpk
[6] = male, CD-1, mouse, plasma, 10 mg/kg, PO, 10 mpk, read-out: Cmax
[7] = male, CD-1, mouse, plasma, 10 mg/kg, PO, 10 mpk, read-out: Tmax

COc1ccc2c(ncc3ncc(=O)n(Cc4c(F)cc(S(N)(=O)=O)cc4F)c32)n1 [Compound 002, 3,5-difluoro-4-((8-methoxy-2-oxopyrazino[2,3-c][1,8]naphthyridin-1(2H)-yl)methyl)benzenesulfonamide]
pIC50 (hENPP1 enzyme): 8.70 to 9.70

COc1ccc2c3c(cnc2n1)COC(=O)N3Cc1c(F)cc(S(N)(=O)=O)cc1F [Compound 006, 3,5-difluoro-4-((8-methoxy-2-oxo-2H-[1,3]oxazino[5,4-c][1,8]naphthyridin-1(4H)-yl)methyl)benzenesulfonamide]
pEC50 [1]: > 9.30 | pIC50 (hENPP1 enzyme): 9.70 to 10.00 | bioavailability [2, 3]: 92.6%

COc1cc2ncc3c(c2cc1F)N(Cc1c(F)cc(S(N)(=O)=O)cc1F)C(=O)NC3 [Compound 007, 3,5-difluoro-4-((9-fluoro-8-methoxy-2-oxo-3,4-dihydropyrimido[5,4-c]quinolin-1(2H)-yl)methyl)benzenesulfonamide]
pEC50 [1]: > 9.30 | pIC50 (hENPP1 enzyme): 9.70 to 10.00

COc1ccc2c(ncc3ccc(=O)n(Cc4c(F)cc(S(N)(=O)=O)cc4F)c32)n1 [Compound 008, 3,5-difluoro-4-((8-methoxy-2-oxopyrido[2,3-h][1,6]naphthyridine-1(2H)-yl)methyl)benzenesulfonamide]
pEC50 [1]: > 9.30 | pIC50 (hENPP1 enzyme): 9.70 to 10.00 | clearance [2, 4]: 4.78 mL/min/kg | half-life [2, 4]: 4.56 h | AUC(0-t) [2, 4]: 7450 ng·h/mL | Vd [2, 4]: 1.52 L/kg | half-life [2, 5]: 3.87 h | bioavailability [2, 3]: 20% | AUC(0-t) [2, 5]: 7340 ng·h/mL | Cmax [2, 6]: 798 ng/mL | Tmax [2, 7]: 3.17 h

COc1ccc2c(ncc3c(=O)[nH]c(=O)n(Cc4c(F)cc(S(N)(=O)=O)cc4F)c32)n1 [Compound 017]
pIC50 (hENPP1 enzyme): 8.70 to 9.70

COc1ccc2c3c(cnc2c1)COC(=O)N3Cc1c(F)cc(S(N)(=O)=O)cc1F [Compound 030, 3,5-difluoro-4-((8-methoxy-2-oxo-2H-[1,3]oxazino[5,4-c]quinolin-1(4H)-yl)methyl)benzenesulfonamide]
pIC50 (hENPP1 enzyme): 9.70 to 10.00

COc1cc2ncc3c(c2cc1OC)N(Cc1c(F)cc(S(N)(=O)=O)cc1F)C(=O)OC3 [Compound 031, 4-((8,9-dimethoxy-2-oxo-2H-[1,3]oxazino[5,4-c]quinolin-1(4H)-yl)methyl)-3,5-difluorobenzenesulfonamide]
pIC50 (hENPP1 enzyme): 8.70 to 9.70

COc1cc2ncc3c(c2cc1F)N(Cc1c(F)cc(S(N)(=O)=O)cc1F)C(=O)OC3 [Compound 048, 3,5-difluoro-4-((9-fluoro-8-methoxy-2-oxo-2H-[1,3]oxazino[5,4-c]quinolin-1(4H)-yl)methyl)benzenesulfonamide]
pEC50 [1]: > 9.30 | pIC50 (hENPP1 enzyme): > 10.00 | clearance [2, 4]: 1.92 mL/min/kg | half-life [2, 4]: 3.07 h | AUC(0-t) [2, 4]: 18300 ng·h/mL | Vd [2, 4]: 0.46 L/kg | half-life [2, 5]: 2.79 h | bioavailability [2, 3]: 38.1% | AUC(0-t) [2, 5]: 34800 ng·h/mL | Cmax [2, 6]: 4870 ng/mL | Tmax [2, 7]: 0.583 h

COc1ccc2c3c(cnc2n1)NCC(=O)N3Cc1c(F)cc(S(N)(=O)=O)cc1F [Compound 049, 3,5-difluoro-4-((8-methoxy-2-oxo-3,4-dihydropyrazino[2,3-c][1,8]naphthyridine-1(2H)-yl)methyl)benzenesulfonamide]
pIC50 (hENPP1 enzyme): 8.70 to 9.70

COc1ccc2c3c(cnc2n1)N(C(=O)OC(C)(C)C)CCN3Cc1c(F)cc(S(N)(=O)=O)cc1F [Compound 050, tert-butyl 1-(2,6-difluoro-4-sulfamoylbenzyl)-8-methoxy-2,3-dihydropyrazino[2,3-c][1,8]naphthyridine-4(1H)-carboxylate]
pIC50 (hENPP1 enzyme): 8.70 to 9.70

COc1ccc2c3c(cnc2n1)NCC(=O)N3Cc1c(F)cc(S(N)(=O)=O)cc1F [Compound 051]
pIC50 (hENPP1 enzyme): 8.70 to 9.70

COc1ccc2c3c(cnc2n1)CCC(=O)N3Cc1c(F)cc(S(N)(=O)=O)cc1F [Compound 054, 3,5-difluoro-4-((8-methoxy-2-oxo-3,4-dihydropyrido[2,3-h][1,6]naphthyridine-1(2H)-yl)methyl)benzenesulfonamide]
pIC50 (hENPP1 enzyme): > 10.00 | clearance [2, 4]: 4.1 mL/min/kg | half-life [2, 4]: 3.51 h | AUC(0-t) [2, 4]: 8090 ng·h/mL | Vd [2, 4]: 0.826 L/kg | half-life [2, 5]: 3.39 h | bioavailability [2, 3]: 49.7% | AUC(0-t) [2, 5]: 20100 ng·h/mL | Cmax [2, 6]: 7900 ng/mL | Tmax [2, 7]: 0.5 h

COc1nc2ncc3c(c2cc1F)N(Cc1c(F)cc(S(N)(=O)=O)cc1F)C(=O)CN3 [Compound 055]
pIC50 (hENPP1 enzyme): 9.70 to 10.00

COc1ccc2c3c(cnc2n1)CN(CC(F)(F)F)C(=O)N3Cc1c(F)cc(S(N)(=O)=O)cc1F [Compound 056]
pIC50 (hENPP1 enzyme): 9.70 to 10.00

COc1ccc2c(ncc3[nH]c(=O)c(=O)n(Cc4c(F)cc(S(N)(=O)=O)cc4F)c32)n1 [Compound 062, 3,5-difluoro-4-((8-methoxy-2,3-dioxo-3,4-dihydropyrazino[2,3-c][1,8]naphthyridine-1(2H)-yl)methyl)benzenesulfonamide]
pEC50 [1]: > 9.30 | pIC50 (hENPP1 enzyme): > 10.00

CCOc1ccc2c(ncc3ncc(=O)n(Cc4c(F)cc(S(N)(=O)=O)cc4F)c32)n1 [Compound 063]
pIC50 (hENPP1 enzyme): 8.70 to 9.70

COc1ccc2c3c(cnc2n1)NCCN3Cc1c(F)cc(S(N)(=O)=O)cc1F [Compound 066, 3,5-difluoro-4-((8-methoxy-3,4-dihydropyrazino[2,3-c][1,8]naphthyridine-1(2H)-yl)methyl)benzenesulfonamide]
pIC50 (hENPP1 enzyme): 8.70 to 9.70

COc1ccc2c3c(cnc2n1)COC(=O)N3Cc1ccc(S(N)(=O)=O)cc1 [Compound 067, 4-((8-methoxy-2-oxo-2H-[1,3]oxazino[5,4-c][1,8]naphthyridin-1(4H)-yl)methyl)benzenesulfonamide]
pIC50 (hENPP1 enzyme): 8.70 to 9.70

COc1ccc2c3c(cnc2n1)COC(=O)N3Cc1ccc(S(N)(=O)=O)cn1 [Compound 070, 6-((8-methoxy-2-oxo-2H-[1,3]oxazino[5,4-c][1,8]naphthyridin-1(4H)-yl)methyl)pyridine-3-sulfonamide]
pIC50 (hENPP1 enzyme): 9.70 to 10.00

COc1ccc2c3c(cnc2n1)COC(=O)N3Cc1ccc(S(N)(=O)=O)cc1F [Compound 071, 3-fluoro-4-((8-methoxy-2-oxo-2H-[1,3]oxazino[5,4-c][1,8]naphthyridin-1(4H)-yl)methyl)benzenesulfonamide]
pIC50 (hENPP1 enzyme): 9.70 to 10.00

COc1ccc2c3c(cnc2c1)N(C(=O)CO)CC(=O)N3Cc1c(F)cc(S(N)(=O)=O)cc1F [Compound 072]
pIC50 (hENPP1 enzyme): 8.70 to 9.70

COc1ccc2c3c(cnc2n1)CN(C1CC1)C(=O)N3Cc1c(F)cc(S(N)(=O)=O)cc1F [Compound 074]
pIC50 (hENPP1 enzyme): 9.70 to 10.00

COc1cnc2c(c1)ncc1[nH]c(=O)c(=O)n(Cc3c(F)cc(S(N)(=O)=O)cc3F)c12 [Compound 076]
pIC50 (hENPP1 enzyme): 9.70 to 10.00

COc1ccc2c(ncc3c2n(Cc2c(F)cc(S(N)(=O)=O)cc2F)c(=O)n3CC(F)(F)F)n1 [ZX-131, reference compound]
pEC50 [1]: 8.70 to 9.30 | pIC50 (hENPP1 enzyme): 9.70 to 10.00 | AUC0-24 h ([2]; IV, 2 mpk): 4419 ng·h/mL | CL ([2]; IV, 2 mpk): 7.2 mL/min/kg | T1/2 ([2]; IV, 2 mpk): 6.01 h | VSS ([2]; IV, 2 mpk): 3.212 L/kg | AUC0-24 h ([2]; PO, 10 mpk): 3274 ng·h/mL | Cmax ([2]; PO, 10 mpk): 247 ng/mL | T1/2 ([2]; PO, 10 mpk): 7.78 h | Tmax ([2]; PO, 10 mpk): 6 h | F % ([2]; PO, 10 mpk vs IV, 2 mpk): 15%
